This note sets out measurements from US20230099441A1, “HETEROCYCLIC COMPOUND, APPLICATION THEREOF, AND COMPOSITION CONTAINING SAME” (GenEros Biopharma Ltd., priority 2019, published 2023).

In experiment [1] the test system is STAT5 Y694 phosphorylation. Description: HTRF experiment: STAT5 Y694 phosphorylation in Hela cells stimulated with human interferon beta. Format: cell-based. The note with it: 2 hours pretreatment, 10 nM human interferon beta 30 minutes. As for the experimental part: Example of Effect 3: HTRF Experiment
Human Interferon 3 (IFN-0) (GenScript, Cat #P01574), STAT5 Y694 phosphorylation detection kit (STAT5 phospho-Y694 kit) (Cisbio; Cat #64AT5PEG).
Hela cells (ATCC American Standard Culture Center, CCL-2) were cultured in a 96-well plate at a density of 3×10^4 cells/well with DMEM medium containing 5% fetal bovine serum and maintained at 37° C. in a humidified incubator with 5% carbon dioxide overnight. On the second day, the original DMEM medium in the 96-well plate was sucked dry, and an equal volume of medium containing different concentrations of compounds (the mother liquor of the compound prepared by dimethyl sulfoxide was diluted in the medium at the required concentration) was added for pretreatment for 2 hours, and then it was placed in an incubator at 37° C. Then human interferon beta with a final concentration of 10 nM was added to stimulate, and it was gently shaken to mix well and then placed in an incubator at 37° C. for 30 minutes.
The medium was removed, an appropriate volume of PBS was added to wash, and then it was sucked dry. Then 40 microliters of 1× Lysis Buffer was added to each well and it was stood for 30 minutes at room temperature (1 ml 1× lysate preparation: 740 μl ddH2O was added to 250 μl 4× lysate and 10 μl Blocking reagent and it was mixed thoroughly). After 30 minutes, the cells were repeatedly blown until the lysis solution was not viscous (avoiding blowing out bubbles) to achieve sufficient lysis.
After overnight incubation, the signals of 665 nm and 620 nm were detected in a multifunctional microplate reader. The calculation formula for the detection of STAT5 Y694 phosphorylation is: Ratio=[(signal 665 nm)/(signal 620 nm)]×10^4. Treatment with dimethyl sulfoxide alone was the baseline control (Ratiobase), and the human interferon β stimulation without addition of the compound was the STAT5 Y694 full phosphorylation activation control (Ratiostimulation), the inhibition rate of STAT5 Y694 phosphorylation of different samples was normalized: Inhibition rate=[1−(RatioExperiment−Ratiobase)/(Ratiostimulation−Ratiobase)]*100.

For experiment [2], the system named is STAT5 Y694 phosphorylation. Description: Protein electrophoresis and blotting of STAT5 Y694 phosphorylation in Jurkat cells stimulated with human interferon beta. Format: cell-based. The note with it: for Example of Effect 1: Inhibiting Ability (Protein Electrophoresis and Blotting): observed pSTAT5 bands at 10 μM and 100 μM; for Inhibiting Ratio (0% for vehicle control): 1 hour pretreatment, 20 ng/ml human interferon beta 30 minutes, pSTAT5/GAPDH. The method, boiled down:
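Serum-free Jurkat cells pretreated with compound 1 h, then stimulated with 20 ng/ml human interferon beta for 30 min at 37° C. pSTAT5 measured by western blot with chemiluminescence, normalized to GAPDH and expressed as percent of DMSO control.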

For `O=C(Cc1ccc(C(F)(F)F)cc1)N1CCC2(CC1)C(=O)NCN2c1ccccc1` [GEN1-049, 1-phenyl-8-(2-(4-(trifluoromethyl)phenyl)acetyl)-1,3,8triazaspiro[4.5]decane-4-one], in experiment [1], the “Example of Effect 3: Inhibiting Ratio@10 μM (HTRF Experiment)” value was found to be 18.33%. Also, in experiment [2], the “Example of Effect 1: Inhibiting Ability (Protein Electrophoresis and Blotting)” value (“Example of Effect 1: Inhibiting Ability” below) is given as “−”.

As for `O=C(Cc1ccc(C(F)(F)F)cc1)N1CCC(n2c(=O)[nH]c3cccc(C(F)(F)F)c32)CC1` [GEN1-013, 7-(trifluoromethyl)-1-(1-(2-(4-(trifluoromethyl)phenyl)acetyl)piperidin-4-yl)-1H-benzo[d]imidazole-2(3H)-one], in experiment [1], the “Example of Effect 3: Inhibiting Ratio@10 μM (HTRF Experiment)” value is recorded as 20.29%. Further, the “Inhibiting Ratio (0% for vehicle control)” value in experiment [2] (1 μM) is recorded as 12.4%; in experiment [2] (10 μM) it was 62.6%; in experiment [2] (100 μM), 97.0%. The “Example of Effect 1: Inhibiting Ability” value in experiment [2] is reported as “+”.

For the compound `O=C(Cc1ccc2ncccc2c1)N1CCC(n2c(=S)[nH]c3ccccc32)CC1` [GEN1-137, 2-(quinolin-6-yl)-1-(4-(2-thio-2,3-dihydro-1H-benzo(d)imidazol-1-yl)piperidin-1-yl)ethan-1-one], in experiment [1], the “Example of Effect 3: Inhibiting Ratio@10 μM (HTRF Experiment)” value is 19.51%. Besides, the “Example of Effect 1: Inhibiting Ability” value in experiment [2] was “+”.

Take `Nc1nc2ccccc2n1C1CCN(C(=O)Cc2ccc(C(F)(F)F)cc2)CC1` [GEN1-055, 1-(4-(2-amino-1H-benzo[d]imidazol-1-yl)piperidin-1-yl)-2-(4-(trifluoromethyl)phenyl)ethanone]: the “Example of Effect 3: Inhibiting Ratio@10 μM (HTRF Experiment)” value in experiment [1] was determined as 16.88%. Moreover, the results for the “Inhibiting Ratio (0% for vehicle control)” value in experiment [2] (1 μM), in experiment [2] (10 μM) and in experiment [2] (100 μM) were 25.0%, 50.0% and 89.6%, respectively. The “Example of Effect 1: Inhibiting Ability” value in experiment [2] was “+”.

`O=C(Cc1ccc(C(F)(F)F)cc1)N1CCC(n2c(=O)[nH]c3cccc(O)c32)CC1` [GEN1-016, 7-hydroxy-1-(1-(2-(4-(trifluoromethyl)phenyl)acetyl)piperidin-4-yl)-1H-benzo[d]imidazole-2 (3H)-one]: in experiment [1], the “Example of Effect 3: Inhibiting Ratio@10 μM (HTRF Experiment)” value is 9.50%. Further, the “Example of Effect 1: Inhibiting Ability” value in experiment [2] is “+”.

For the compound `O=C(Cc1ccc(C(F)(F)F)cc1)N1CCC(n2c(=S)[nH]c3ccccc32)CC1` [GEN1-050, 1-(4-(2-thioxo-2,3-dihydro-1H-benzo[d]imidazol-1-yl)piperidin-1-yl)-2-(4-(trifluoromethyl)phenyl)ethanone], the “Example of Effect 3: Inhibiting Ratio@10 μM (HTRF Experiment)” value in experiment [1] is 15.28%. Further, in experiment [2], the “Example of Effect 1: Inhibiting Ability” value was “+”.

Consider `O=C(Cc1ccc(C(F)(F)F)cc1)N1CCC2(CC1)C(=O)Nc1ccccc12` [GEN1-167, 1′-(2-(4-(trifluoromethyl)phenyl)acetyl)spiro[indoline-3,4′-piperidine]-2-one], for which, in experiment [1], the “Example of Effect 3: Inhibiting Ratio@10 μM (HTRF Experiment)” value stood at 15.57%. Besides, in experiment [2], the “Example of Effect 1: Inhibiting Ability” value was “+”.

As for `N#Cc1cccc2[nH]c(=O)n(C3CCN(C(=O)Cc4ccc(C(F)(F)F)cc4)CC3)c12` [GEN1-014, 2-oxo-3-(1-(2-(4-(trifluoromethyl)phenyl)acetyl)piperidin-4-yl)-2,3-dihydro-1H-benzo[d]imidazole-4-carbonitrile], the “Example of Effect 3: Inhibiting Ratio@10 μM (HTRF Experiment)” value in experiment [1] came to 16.12%. Further, the figures for the “Inhibiting Ratio (0% for vehicle control)” value in experiment [2] (1 μM), in experiment [2] (10 μM) and in experiment [2] (100 μM) were 14.2%, 78.8% and 99.1%, respectively. For the same compound, in experiment [2], the “Example of Effect 1: Inhibiting Ability” value is on record as “+”.

Turning to `O=C(Cc1ccc2ncccc2c1)N1CCC(n2c(=O)[nH]c3cccc(C(F)(F)F)c32)CC1` [GEN1-117, 1-(1-(2-(quinolin-6-yl)acetyl)piperidin-4-yl)-7-(trifluoromethyl)-1H-benzo[d]imidazol-2(3H)-one], the “Example of Effect 3: Inhibiting Ratio@10 μM (HTRF Experiment)” value in experiment [1] is 89.31%. Also, the “Example of Effect 1: Inhibiting Ability” value in experiment [2] was “++”.

On to `O=C(Cc1ccc2c(c1)OCO2)N1CCC(n2c(=O)[nH]c3cccc(C(F)(F)F)c32)CC1` [GEN1-116, 1-(1-(2-(benzo[d][1,3]dioxol-5-yl)acetyl)piperidin-4-yl)-7-(trifluoromethyl)-1,3-dihydro-2H-benzo[d]imidazol-2-one], for which the “Example of Effect 3: Inhibiting Ratio@10 μM (HTRF Experiment)” value in experiment [1] worked out at 35.01%. Moreover, the “Example of Effect 1: Inhibiting Ability” value in experiment [2] is recorded as “+”.

With `O=C(Cc1ccc(C(F)(F)F)cc1)N1CCC(n2c(=O)[nH]c3c(C(F)(F)F)cccc32)CC1` [GEN1-001, 4-(trifluoromethyl)-1-(1-(2-(4-(trifluoromethyl)phenyl)acetyl)piperidin-4-yl)-1H-benzo[d]imidazole-2(3H)-one], in experiment [1], the “Example of Effect 3: Inhibiting Ratio@10 μM (HTRF Experiment)” value was 3.75%. In addition, the “Inhibiting Ratio (0% for vehicle control)” value stood at 11.0% in experiment [2] (1 μM), 29.2% in experiment [2] (10 μM) and 96.8% in experiment [2] (100 μM). Also, in experiment [2], the “Example of Effect 1: Inhibiting Ability” value is given as “+”.

Turning to `CC(=O)Nc1ccccc1NC1CCN(C(=O)Cc2ccc(C(F)(F)F)cc2)CC1` [GEN1-057, N-(2-((1-(2-(4-(trifluoromethyl)phenyl)acetyl)piperidin-4-yl)amino)phenyl)acetamide], the “Example of Effect 3: Inhibiting Ratio@10 μM (HTRF Experiment)” value in experiment [1] was 66.22%. The “Example of Effect 1: Inhibiting Ability” value in experiment [2] is given as “++”.

As to `O=C(Cc1ccc(C(F)(F)F)cc1)N1CCC(Cn2c(=O)[nH]c3cccc(C(F)(F)F)c32)CC1` [GEN1-174, 7-(trifluoromethyl)-1-((1-(2-(4-(trifluoromethyl)phenyl)acetyl)piperidin-4-yl)methyl)-1H-benzo[d]imidazol-2(3H)-one], the “Example of Effect 3: Inhibiting Ratio@10 μM (HTRF Experiment)” value in experiment [1] turned out to be 39.65%. Also, in experiment [2], the “Example of Effect 1: Inhibiting Ability” value was “+”.

Take `O=C(Cc1ccc(Br)cc1)N1CCC(n2c(=O)[nH]c3cccc(C(F)(F)F)c32)CC1` [GEN1-157, 1-(1-(2-(4-bromophenyl)acetyl)piperidin-4-yl)-7-(trifluoromethyl)-1H-benzo[d]imidazol-2(3H)-one]: the “Example of Effect 3: Inhibiting Ratio@10 μM (HTRF Experiment)” value in experiment [1] worked out at 28.83%. Besides, the “Example of Effect 1: Inhibiting Ability” value in experiment [2] is “+”.

Turning to `O=C(Cc1ccc(C(F)(F)F)cc1)N1CCC(n2c(=O)[nH]c3ccc(C4CC4)cc32)CC1` [GEN1-089, 6-cyclopropyl-1-(1-(2-(4-(trifluoromethyl)phenyl)acetyl)piperidin-4-yl)-1H-benzo[d]imidazol-2(3H)-one], the “Example of Effect 3: Inhibiting Ratio@10 μM (HTRF Experiment)” value in experiment [1] is given as 7.83%. For the same compound, the “Example of Effect 1: Inhibiting Ability” value in experiment [2] was “+”.
